What was measured:
Type in all cases: cell-based
[1] = test system: transformed cells (Ras 3T3) and normal 3T3 cells; test: cytotoxicity in transformed and normal 3T3 cells
Description: A similar experiment is shown in FIG. 9 for five inventive compounds (see Table 1 […] for chemical names) showing differential cytotoxicity for the same normal and transformed cells.
Each inventive compound is investigated for cytotoxicity to determine appropriate doses for biological activity assays and to prevent cytotoxic reactions in in vitro assays when characterizing activity. Cells (e.g., NIH-3T3, Ras transformed 3T3 cells, malignant melanoma LD2 cells, etc.) are added to microtiter plates and drug is added about two days after plating. Cell viability is determined using a fluorescent viability stain (e.g., 2',7'-bis-(2-carboroxyethyl)-5-(and -6)-carboxyfluorescein acetoxymethyl ester, BCECF excitation 488 nm and emission 525 nm) 24, 48 or 72 hours after addition of the drug.
This example illustrates a comparison of cytotoxicity determinations for CT1595 in transformed cells (Ras 3T3) and in normal 3T3 cells at drug doses of 1, 10 and 100 μM in in vitro cell culture conditions (FIG. 8). […] A similar experiment is shown in FIG. 9 for five inventive compounds (see Table 1 above for chemical names) showing differential cytotoxicity for the same normal and transformed cells.

mast cells = test: mast cell degranulation, serotonin release assay
Source text: A serotonin release assay is utilized to study the utility of the inventive compounds for treatment of asthma and allergy. This assay measures mast cell degranulation, which is an early phase reaction to allergen challenge. Mast cells grown in tissue culture are first loaded with ^3 H serotonin, which is incorporated into the granules in the cells. The mast cells are sensitized with antigen specific monoclonal IgE, and then triggered to degranulate with the specific antigen (dinitrophenol bound to BSA (DNP)). When the cells degranulate, ^3 H Serotonin is released into the medium, and can be measured directly. The ability of the inventive compounds to inhibit the degranulation response is determined by the decrease in ^3 H Serotonin released in the presence of drug and is represented as % INHIBITION. The IC50 of any given compound is determined by the ability of that compound to inhibit degranulation by 50%.
Specifically, the serotonin release assay seeds 2×10^5 cells in 0.5 ml medium in duplicate for spontaneous release, IgE+DNP, IgE+DNP+EtOH (vehicle control), and inventive compounds. One μCi [^3H ]-Serotonin/ml (i.e., 0.5 μCi/well) (NEN Research Products, cat. #NET-398 Hydroxytryptamine Binoxalate, 5-[1,2-^3 H(N)]-(Serotonin Binoxalate, [1,2-^3 H(N)]-)) and 1 μl/ml IgE is added. The cells are incubated for 18 hours at 37° C. in 5% CO2, washed twice with 0.5 ml Isotonic Buffer (25 mM disodium PIPES pH 7.1,100 mM NaCl, 5 mM KCl, 5 mM glucose, 0.4 mM MgCl2, 1 mM CaCl2, 0.1% BSA), and sterile filtered. 250 μl Isotonic Buffer is added per well and the plates are equilibrated in an incubator for about 10 min. Drug is added and cells are activated with 40 ng/ml DNP-BSA (1 mg/ml Diluted 1:200 in Isotonic Buffer) for 45 minutes using 2 μl/250 μl. Spontaneous release is determined in incubated cells with 250 μl Isotonic Buffer for 45 minutes and the reaction is stopped by removing supernatant and centrifuging at ~4000 rpm in microfuge for 15 seconds to remove any detached cells. Released radiolableled serotonin is counted. To determine amount of ^3 H-serotonin incorporated into the cells, (a) remove Isotonic Buffer and lyse cells by adding 250 μl 1% Triton-X100 in PBS, (b) add to 5 ml scintillation fluid, (c) wash 2× with Triton/PBS, and (d) add washes to scintillation tube. Percent serotonin release is calculated by dividing the amount of released serotonin by the sum of incorporated plus released serotonin and correcting for spontaneous released serotonin. Compound inhibition is calculated by dividing the percent serotonin release in the presence of a compound by the percent serotonin release in the absence of the compound.
This assay is described above and provides an in vitro model for an allergy and asthma therapeutic compound.

mast cell line (PT-18) = test: total PA mass in mast cell line stimulated by IgE and DNP; conditions: FIG. 13; IgE and DNP stimulation, in words
murine splenocytes = test: inhibition of murine splenocyte proliferation stimulated by anti-mu and IL-4; conditions: FIG. 5; anti-mu (10 μg/ml) and IL-4 (12.5 ng/ml)
Description: Drug was added to the cells at the doses indicated two hours prior to activation with anti-mu and IL-4. This in vitro assay is a model for immune suppression and treatment or prevention of autoimmune diseases. […] Background counts were less than 200 cpm.
There are a series of in vitro assays that can be used to measure immunosuppressive activity of a particular compound. These assays are a predictive model for treatment or prevention of autoimmune diseases, such as diabetes, lupus, arthritis, and the like. A first assay measures immunosuppressive activity of a drug at the B cell level. Spleens from adult mice contain immature B cells that express surface IgM. Cross-linking the surface IgM with an anti-mu antibody results in B cell proliferation. Additionally, this activation results in an increased expression of interleukin-4 receptors(IL-4R) on the surface of such cells. IL-4 acts as a growth factor for B cells and will increase the amount of proliferation induced by anti-mu. In the first assay, a mixture of anti-mu and murine IL-4 is added to murine splenocytes to cause their proliferation. Mice spleens are obtained from adult mice and a single cell suspension is prepared in RPMI 1640 medium supplemented with 10% FCS. […] Proliferation is determined on the third day with a pulse of tritiated thymidine. […]

`Cn1cnc2c1c(=O)n(CCCCC(=O)CCl)c(=O)n2C` [CT1595, 1-(6-chloro-5-oxohexyl)-3,7-dimethylxanthine] was tested, and the “differential cytotoxicity, transformed vs normal 3T3 cells” value ([1]; FIG. 8, 1, 10 and 100 μM) was “more cytotoxic for the cancer cell than the normal cell”, the “cytotoxic activity, normal and transformed 3T3 cells” value ([1]; FIG. 9, five compounds) was “significant cytotoxic activity” and the inhibition at 50 µM (mast cells; 50 μM) was 44%. The inhibition at 100 µM (mast cells; 100 μM) was 88%, the “IC50 for accumulation of PA” value (mast cell line (PT-18)) was “low nanomolar range” and the “inhibition of splenocyte proliferation” value (murine splenocytes) was “most potent inhibitors of splenocyte proliferation in a dose-response manner”.
